{"source": "ChEMBL document CHEMBL4138146", "about": "“A Schmidt rearrangement-mediated synthesis of novel tetrahydro-benzo[1,4]diazepin-5-ones as potential anticancer and antiprotozoal agents” (Eur J Med Chem, 2017)", "assay_type_in_all_cases": "functional", "key": {"MDA-MB-468 [1]": {"test_system": "MDA-MB-468", "experiment": "Growth inhibition of human MDA-MB-468 cells assessed as cell growth at 10^-8 M incubated for 48 hrs by sulforhodamine B assay relative to control", "details": "MDA-MB-468, 48 h, read-out: Activity"}, "BT-549": {"test_system": "BT-549", "experiment": "Growth inhibition of human BT549 cells assessed as cell growth at 10^-6 M incubated for 48 hrs by sulforhodamine B assay relative to control", "details": "BT-549, 48 h, read-out: Activity"}, "MDA-MB-468 [2]": {"test_system": "MDA-MB-468", "experiment": "Growth inhibition of human MDA-MB-468 cells assessed as cell growth at 10^-6 M incubated for 48 hrs by sulforhodamine B assay relative to control", "details": "MDA-MB-468, 48 h, read-out: Activity"}, "LOX IMVI": {"test_system": "LOX IMVI", "experiment": "Growth inhibition of human LOXIMVI cells assessed as cell growth at 10^-4 M incubated for 48 hrs by sulforhodamine B assay relative to control", "details": "read-out: Activity"}, "NCI-H460 [3]": {"test_system": "NCI-H460", "experiment": "Growth inhibition of human NCI-H460 cells assessed as cell growth at 10^-7 M incubated for 48 hrs by sulforhodamine B assay relative to control", "details": "NCI-H460, 48 h, read-out: Activity"}, "M14": {"test_system": "M14", "experiment": "Growth inhibition of human M14 cells assessed as cell growth at 10^-8 M incubated for 48 hrs by sulforhodamine B assay relative to control", "details": "M14, 48 h, read-out: Activity"}, "HCT-15": {"test_system": "HCT-15", "experiment": "Growth inhibition of human HCT15 cells assessed as cell growth at 10^-4 M incubated for 48 hrs by sulforhodamine B assay relative to control", "details": "HCT-15, 48 h, read-out: Activity"}, "HT-29 [4]": {"test_system": "HT-29", "experiment": "Growth inhibition of human HT-29 cells assessed as cell growth at 10^-7 M incubated for 48 hrs by sulforhodamine B assay relative to control", "details": "HT-29, 48 h, read-out: Activity"}, "MDA-MB-435": {"test_system": "MDA-MB-435", "experiment": "Growth inhibition of human MDA-MB-435 cells assessed as cell growth at 10^-6 M incubated for 48 hrs by sulforhodamine B assay relative to control", "details": "MDA-MB-435, 48 h, read-out: Activity"}, "SNB-75": {"test_system": "SNB-75", "experiment": "Growth inhibition of human SNB75 cells assessed as cell growth at 10^-8 M incubated for 48 hrs by sulforhodamine B assay relative to control", "details": "SNB-75, 48 h, read-out: Activity"}, "T47D": {"test_system": "T47D", "experiment": "Growth inhibition of human T47D cells assessed as cell growth at 10^-5 M incubated for 48 hrs by sulforhodamine B assay relative to control", "details": "read-out: Activity"}, "HCC 2998 [5]": {"test_system": "HCC 2998", "experiment": "Growth inhibition of human HCC2998 cells assessed as cell growth at 10^-7 M incubated for 48 hrs by sulforhodamine B assay relative to control", "details": "HCC 2998, 48 h, read-out: Activity"}, "HT-29 [6]": {"test_system": "HT-29", "experiment": "Growth inhibition of human HT-29 cells assessed as cell growth at 10^-6 M incubated for 48 hrs by sulforhodamine B assay relative to control", "details": "HT-29, 48 h, read-out: Activity"}, "DU-145": {"test_system": "DU-145", "experiment": "Growth inhibition of human DU145 cells assessed as cell growth at 10^-4 M incubated for 48 hrs by sulforhodamine B assay relative to control", "details": "DU-145, 48 h, read-out: Activity"}, "HCC 2998 [7]": {"test_system": "HCC 2998", "experiment": "Growth inhibition of human HCC2998 cells assessed as cell growth at 10^-8 M incubated for 48 hrs by sulforhodamine B assay relative to control", "details": "HCC 2998, 48 h, read-out: Activity"}, "SK-OV-3 [8]": {"test_system": "SK-OV-3", "experiment": "Growth inhibition of human SKOV3 cells assessed as cell growth at 10^-6 M incubated for 48 hrs by sulforhodamine B assay relative to control", "details": "SK-OV-3, 48 h, read-out: Activity"}, "HOP-92": {"test_system": "HOP-92", "experiment": "Growth inhibition of human HOP92 cells assessed as cell growth at 10^-7 M incubated for 48 hrs by sulforhodamine B assay relative to control", "details": "HOP-92, 48 h, read-out: Activity"}, "ACHN": {"test_system": "ACHN", "experiment": "Growth inhibition of human ACHN cells assessed as cell growth at 10^-7 M incubated for 48 hrs by sulforhodamine B assay relative to control", "details": "read-out: Activity"}, "OVCAR-3": {"test_system": "OVCAR-3", "experiment": "Growth inhibition of human OVCAR3 cells assessed as cell growth at 10^-6 M incubated for 48 hrs by sulforhodamine B assay relative to control", "details": "OVCAR-3, 48 h, read-out: Activity"}, "EKVX": {"test_system": "EKVX", "experiment": "Growth inhibition of human EKVX cells assessed as cell growth at 10^-7 M incubated for 48 hrs by sulforhodamine B assay relative to control", "details": "read-out: Activity"}, "NCI/ADR-RES": {"test_system": "NCI/ADR-RES", "experiment": "Growth inhibition of human NCI/ADR-RES cells assessed as cell growth at 10^-8 M incubated for 48 hrs by sulforhodamine B assay relative to control", "details": "read-out: Activity"}, "OVCAR-5": {"test_system": "OVCAR-5", "experiment": "Growth inhibition of human OVCAR5 cells assessed as cell growth at 10^-6 M incubated for 48 hrs by sulforhodamine B assay relative to control", "details": "OVCAR-5, 48 h, read-out: Activity"}, "SW-620": {"test_system": "SW-620", "experiment": "Growth inhibition of human SW620 cells assessed as cell growth at 10^-6 M incubated for 48 hrs by sulforhodamine B assay relative to control", "details": "SW-620, 48 h, read-out: Activity"}, "NCI-H23 [9]": {"test_system": "NCI-H23", "experiment": "Growth inhibition of human NCI-H23 cells assessed as cell growth at 10^-7 M incubated for 48 hrs by sulforhodamine B assay relative to control", "details": "NCI-H23, 48 h, read-out: Activity"}, "SK-OV-3 [10]": {"test_system": "SK-OV-3", "experiment": "Growth inhibition of human SKOV3 cells assessed as cell growth at 10^-8 M incubated for 48 hrs by sulforhodamine B assay relative to control", "details": "SK-OV-3, 48 h, read-out: Activity"}, "KM12 [11]": {"test_system": "KM12", "experiment": "Growth inhibition of human KM12 cells assessed as cell growth at 10^-7 M incubated for 48 hrs by sulforhodamine B assay relative to control", "details": "KM12, 48 h, read-out: Activity"}, "KM12 [12]": {"test_system": "KM12", "experiment": "Growth inhibition of human KM12 cells assessed as cell growth at 10^-6 M incubated for 48 hrs by sulforhodamine B assay relative to control", "details": "KM12, 48 h, read-out: Activity"}, "IGROV-1": {"test_system": "IGROV-1", "experiment": "Growth inhibition of human IGROV1 cells assessed as cell growth at 10^-6 M incubated for 48 hrs by sulforhodamine B assay relative to control", "details": "IGROV-1, 48 h, read-out: Activity"}, "SN12C [13]": {"test_system": "SN12C", "experiment": "Growth inhibition of human SN12C cells assessed as cell growth at 10^-5 M incubated for 48 hrs by sulforhodamine B assay relative to control", "details": "read-out: Activity"}, "RXF 393": {"test_system": "RXF 393", "experiment": "Growth inhibition of human RXF393 cells assessed as cell growth at 10^-6 M incubated for 48 hrs by sulforhodamine B assay relative to control", "details": "RXF 393, 48 h, read-out: Activity"}, "NCI-H23 [14]": {"test_system": "NCI-H23", "experiment": "Growth inhibition of human NCI-H23 cells assessed as cell growth at 10^-4 M incubated for 48 hrs by sulforhodamine B assay relative to control", "details": "NCI-H23, 48 h, read-out: Activity"}, "HCT-116 [15]": {"test_system": "HCT-116", "experiment": "Growth inhibition of human HCT116 cells assessed as cell growth at 10^-4 M incubated for 48 hrs by sulforhodamine B assay relative to control", "details": "HCT-116, 48 h, read-out: Activity"}, "SN12C [16]": {"test_system": "SN12C", "experiment": "Growth inhibition of human SN12C cells assessed as cell growth at 10^-7 M incubated for 48 hrs by sulforhodamine B assay relative to control", "details": "read-out: Activity"}, "HCT-116 [17]": {"test_system": "HCT-116", "experiment": "Growth inhibition of human HCT116 cells assessed as cell growth at 10^-6 M incubated for 48 hrs by sulforhodamine B assay relative to control", "details": "HCT-116, 48 h, read-out: Activity"}, "NCI-H460 [18]": {"test_system": "NCI-H460", "experiment": "Growth inhibition of human NCI-H460 cells assessed as cell growth at 10^-5 M incubated for 48 hrs by sulforhodamine B assay relative to control", "details": "NCI-H460, 48 h, read-out: Activity"}}, "data": [{"compound": "CCCCOc1nc2ccccc2cc1C1CNC(=O)c2ccccc2N1", "note": "(stereo not given)", "values": [{"measurement": "growth at 0.01 µM", "setting": "MDA-MB-468 [1]", "value": 78, "unit": "%"}, {"measurement": "growth at 1 µM", "setting": "BT-549", "value": 84, "unit": "%"}, {"measurement": "growth at 1 µM", "setting": "MDA-MB-468 [2]", "value": 66, "unit": "%"}, {"measurement": "growth at 100 µM", "setting": "LOX IMVI", "value": -81, "unit": "%"}, {"measurement": "growth at 0.1 µM", "setting": "NCI-H460 [3]", "value": 102, "unit": "%"}, {"measurement": "growth at 0.01 µM", "setting": "M14", "value": 96, "unit": "%"}, {"measurement": "growth at 100 µM", "setting": "HCT-15", "value": -74, "unit": "%"}, {"measurement": "growth at 0.1 µM", "setting": "HT-29 [4]", "value": 98, "unit": "%"}, {"measurement": "growth at 1 µM", "setting": "MDA-MB-435", "value": 8, "unit": "%"}, {"measurement": "growth at 0.01 µM", "setting": "SNB-75", "value": 73, "unit": "%"}, {"measurement": "growth at 10 µM", "setting": "T47D", "value": 36, "unit": "%"}, {"measurement": "growth at 0.1 µM", "setting": "HCC 2998 [5]", "value": 93, "unit": "%"}, {"measurement": "growth at 1 µM", "setting": "HT-29 [6]", "value": 98, "unit": "%"}, {"measurement": "growth at 100 µM", "setting": "DU-145", "value": -43, "unit": "%"}, {"measurement": "growth at 0.01 µM", "setting": "HCC 2998 [7]", "value": 99, "unit": "%"}, {"measurement": "growth at 1 µM", "setting": "SK-OV-3 [8]", "value": 80, "unit": "%"}, {"measurement": "growth at 0.1 µM", "setting": "HOP-92", "value": 80, "unit": "%"}, {"measurement": "growth at 0.1 µM", "setting": "ACHN", "value": 98, "unit": "%"}, {"measurement": "growth at 1 µM", "setting": "OVCAR-3", "value": 64, "unit": "%"}, {"measurement": "growth at 0.1 µM", "setting": "EKVX", "value": 97, "unit": "%"}, {"measurement": "growth at 0.01 µM", "setting": "NCI/ADR-RES", "value": 94, "unit": "%"}, {"measurement": "growth at 1 µM", "setting": "OVCAR-5", "value": 98, "unit": "%"}, {"measurement": "growth at 1 µM", "setting": "SW-620", "value": 66, "unit": "%"}, {"measurement": "growth at 0.1 µM", "setting": "NCI-H23 [9]", "value": 95, "unit": "%"}, {"measurement": "growth at 0.01 µM", "setting": "SK-OV-3 [10]", "value": 88, "unit": "%"}, {"measurement": "growth at 0.1 µM", "setting": "KM12 [11]", "value": 98, "unit": "%"}, {"measurement": "growth at 1 µM", "setting": "KM12 [12]", "value": 85, "unit": "%"}, {"measurement": "growth at 1 µM", "setting": "IGROV-1", "value": 86, "unit": "%"}, {"measurement": "growth at 10 µM", "setting": "SN12C [13]", "value": 19, "unit": "%"}, {"measurement": "growth at 1 µM", "setting": "RXF 393", "value": 80, "unit": "%"}, {"measurement": "growth at 100 µM", "setting": "NCI-H23 [14]", "value": -26, "unit": "%"}, {"measurement": "growth at 100 µM", "setting": "HCT-116 [15]", "value": -67, "unit": "%"}, {"measurement": "growth at 0.1 µM", "setting": "SN12C [16]", "value": 90, "unit": "%"}, {"measurement": "growth at 1 µM", "setting": "HCT-116 [17]", "value": 75, "unit": "%"}, {"measurement": "growth at 10 µM", "setting": "NCI-H460 [18]", "value": 5, "unit": "%"}]}]}
